One data set has as its system C5a generation. Put plainly: C5a ELISA of supernatant, antibody-sensitized human platelets in normal human serum. It counts as cell-based. As for the experimental part:
(§1) For experiments sensitizing platelets with human anti-platelet antibody, purified platelets were treated with 4% ITP sera for 15 minutes at 30° C. before adding 2% normal human complement sufficient sera and incubating for 30 minutes at 37° C. For samples containing PIC1, sera and PIC1 were pre-incubated for 5 minutes before combining with sensitized platelets. Samples were then spun and supernatant was removed for C5a analysis by ELISA. A C5a ELISA kit (R&D Systems) was used per manufacturer's instructions. The cells were washed once with GVBS^−− and once with water to lyse the platelets. The remaining cell pellet was treated with 25 mM methylamine for 1 hour at 37° C., spun, and the supernatant was analyzed for iC3b by ELISA. The ELISA for iC3b was performed as previously described, utilizing a goat anti-human C3 antibody (Complement Technology, Tyler, Tex.) for capture, a mouse anti-human iC3b antibody (Quidel, San Diego, Calif.) for probing, and a goat anti-mouse HRP (Sigma-Aldrich, St Louis, Mo.) for detection.
Plasma recovered from these experiments was then assayed for the pro-inflammatory anaphylatoxin C5a by ELISA.

The conditions of data set [1]: water, without PEGylation or DMSO. As for the experimental part: Sarcosine variants and PEG were dissolved in water and the pH was adjusted with NaOH. PA was dissolved in DMSO and then brought up to the final concentration with water resulting in 30% DMSO and pH adjusted. Antibody sensitized sheep erythrocytes (EA), purified C1q and factor B-depleted human sera were purchased from Complement Technology (Tyler, Tex.). Purified myeloperoxidase was purchased from Lee BioSolutions (Maryland Heights, Mo.) and tetramethylbenzidine (TMB) and PicoGreen were purchased from Thermo Fisher (Waltham Mass.).
(PA), peptide derivatives were synthesized with sarcosine residues substituted at all 15 positions. Also included is a peptide in which the vicinal cysteines at positions 9 and 10 (C9,C10) were replaced with a single sarcosine residue.

Data set [2] deals with purified human neutrophils. In words: NETosis assay (immune complex activated serum and H2O2; PicoGreen free DNA, fluorescence microscopy). In kind it is cell-based. The following applies: neutrophils stimulated with immune complexes, FIG. 5B third row. As for the experimental part: NETosis assays with immune complexes were performed as previously described. Briefly, normal human serum was stimulated with ovalbumin-antiovalbumin immune complexes in GVBS^++ for 30 minutes at 37° C. This mixture along with 0.05% H2O2 was then added to purified human neutrophils resuspended in RPMI with or without sarcosine variants (2 mM), allowing NETosis to occur. Quantitation of free DNA released from the neutrophils was performed using PicoGreen. Slides were stained with DAPI (Southern Biotech, Birmingham, Ala.). The following antibodies were used to visualize formation of NETs: • (i) mouse anti-elastase (Invitrogen, Carlsbad, Calif.) as a primary antibody with the secondary goat anti-mouse antibody Alexa Fluor 568 (Novus Biologicals, Centennial, Colo.) and • (ii) rabbit anti-histone H3 (Abcam, Cambridge Mass.) with goat anti-rabbit antibody Alexa Fluor 488 (Novus Biologicals). Fluorescence microscopy using an Olympus BX53 microscope was performed to visualize NETs.
The peptide variants were tested for inhibition of NETosis. In this assay, purified human neutrophils were stimulated with normal human serum activated with ovalbumin-antiovalbumin immune complexes and hydrogen peroxide. Free DNA expressed from the neutrophils was then measured in a PicoGreen assay. […] Direct visualization of neutrophil extracellular trap (NET) formation by fluorescence microscopy was used to confirm the above NETosis results with the 18 variant. Human neutrophils were purified and stimulated on glass slides then stained with DAPI to visualize DNA and probed with anti-neutrophil elastase (αNE) and anti-histone H3 (αhistone), as previously described. […] Fluorescence microscopy visualization of NETs confirmed the findings seen for quantitative measurements of free DNA.

The subject of the next data set is human platelets. Put plainly: viability of antibody-sensitized human platelets in normal human serum (Presto Blue). In kind it is cell-based. The procedure:
For in vitro experiments, platelets were stained with PrestoBlue Cell Viability Reagent as per manufacturer's recommendations. For in vivo experiments, platelets were stained with PKH26 Red Fluorescent Cell Dye as per manufacturer's recommendations.
as §1
Cell viability of the platelets was measured by utilizing the vital dye, Presto Blue. […] These effects can be largely reversed in the presence of a classical complement pathway inhibitor.

In data set [3] the test system is transfused human platelets. Put plainly: human platelets transfused into Wistar rats (platelet refractoriness model). In kind it is in vivo, Wistar rat. As for the experimental part:
Male Wistar rats approximately 16 weeks old and 250 grams in weight were purchased (Hilltop Scottdale, Pa.) with indwelling intra jugular catheters in place. Rats were sedated with ketamine and acepromazine throughout the course of the experiment with monitoring of vital signs. PIC1 infusions were performed 30 seconds prior to transfusion with PKH26 stained human platelets. Blood samples were collected into K2EDTA microtainer tubes (BD, Franklin Lakes, N.J., USA) from the animals prior to transfusion and then at 0.5, 2, 5, 20, 60 and 120 min after transfusion. Upon completion of the final blood draw, the animals were euthanized using Fatal Plus (Vortech Pharmaceuticals, Dearborn, Mich., USA). A necropsy was completed after euthanasia to collect organs for histopathology.
Flow cytometry was performed using a FACSCalibur flow cytometer (Becton Dickinson, Franklin Lakes, N.J., USA) with DXP 8 Color 488/637/407 upgrade (Cytek Development, Freemont, Calif., USA). The data was acquired using Cytek FlowJo CE version 7.5.110.7. Prior to analysis on the flow cytometry machine, whole rat blood was spun at 500×g for 5 min. The plasma platelet layer was removed and then diluted 1:10 with PBS. Approximately 20,000 events selected for platelet size were run on the […]. Data was analyzed using FlowJo V10.4.2 (FlowJo LLC, Ashland, Oreg., USA).
The unstained native rat platelets are to the left of the vertical line, and the stained transfused platelets are to the right. […] This difference is not noticeable at two minutes.
Total platelet counts for rats transfused with unstained platelets treated with PIC1 or saline control (as shown in FIG. 12B) were evaluated in order to evaluate if similar trends could be determined for unstained platelets. Platelet counts were measured for each blood sample by Antech Diagnostics (Chesapeake, Va.). Decreases in platelet counts were calculated for each time point compared with the maximal platelet count immediately after transfusion at 30 seconds.

The subject of a further data set is complement activation. To be noted: administered intravascularly into rats, by 30 seconds; cited from earlier work.

In the case of “H2N-IALILEPICCQERAA-dPEG24 (H-IALILEPICCQERAA-dPEG24; cysteine pairing not given here) [PA-dPEG24, 15-amino acid PEGylated peptide, 24 PEG moieties at the C-terminus]”, the “inhibition of C5a generation, in words” value with C5a generation (1.5 mM, P=0.028) is “Significant inhibition of C5a generation”. The “decrease of C5a generation” value with C5a generation (3.0 mM, P=0.006) came to 44%. Further, the “C5a generation, dose response” value in the data set with C5a generation (sensitizing antibody and NHS, increasing concentrations, FIG. 6B) is given as “dose-dependently inhibited C5a generation”. Also, the “H2O Soluble” value in data set [1] is reported as “No”. The “NET formation by fluorescence microscopy” value in data set [2] is “dramatic reduction in NETs”. In addition, the “increase in platelet viability, in words” value in the data set with human platelets (1.5 mM, P=0.031) is reported as “Significant increases in platelet viability”. In the data set on human platelets (3.0 mM, P=0.003), the “increase in platelet viability” value is on record as 53%. For the same substance, the “platelet viability, dose response” value with human platelets (sensitizing antibody and NHS, increasing concentrations, FIG. 6C) is reported as “Platelet viability dose-dependently increased”. For the same substance, the “increase in transfused platelets compared with control” value in data set [3] (160 mg/kg infused 30 seconds before transfusion, 0.5 minutes after transfusion, P=0.05, FIG. 12A) turned out to be 2 fold. Further, in data set [3] (160 mg/kg, 0.5 minutes after transfusion, vs vehicle, FIG. 11), the “stained transfused platelets, representative flow cytometry” value is “increased numbers of stained transfused platelets”. Besides, in data set [3] (160 mg/kg, later time points than 0.5 minutes), the “amount of transfused platelets compared with control” value is “no significant difference in the amount of transfused platelets”. Besides, the “decrease in total platelet count relative to 30 seconds after transfusion” value in data set [3] (unstained platelets, two minutes (P=0.04) and 20 minutes (P=0.03), FIG. 12B) is recorded as “Statistically significant greater decreases in the platelet count were found for saline-treated versus PA-dPEG24-treated animals”. Also, in the data set on complement activation, the “systemic inhibition of complement activation” value was above 90%.

Source of the values: patent US20220096592A1, “PIC1 VARIANTS WITH IMPROVED SOLUBILITY AND METHODS OF USING THE SAME” (priority 2019, published 2022).
